Data: PMC10787407, “Regulation of polysaccharide in Wu‐tou decoction on intestinal microflora and pharmacokinetics of small molecular compounds in AIA rats” (Chinese Medicine, 2024)
Where two headings read alike, the source gives them in different places.

Assays:
[1] = in vivo; conditions: Sprague-Dawley, rat, po, 39.2 g/kg/day; for Cmax: C max; for Tmax: T max
[2] = PK study of SM components in plasma of AIA rats by UPLC-MS/MS (MG vs MPS group); conditions: for Absorption under the intervention of PS: MPS vs MG group; for Cmax: C max; for Tmax: T max
[3] = rat, in vivo
[4] = MG group: AIA rats, saline 21 days, then oral SM 39.2 g crude drug/kg, plasma, mean ± SEM
[5] = MPS group: AIA rats, oral PS 9.8 g crude drug/kg/day 21 days, then oral SM 39.2 g crude drug/kg, plasma, mean ± SEM
[6] = t 1/2, MG group: AIA rats, saline 21 days, then oral SM 39.2 g crude drug/kg, plasma, mean ± SEM
[7] = t 1/2, MPS group: AIA rats, oral PS 9.8 g crude drug/kg/day 21 days, then oral SM 39.2 g crude drug/kg, plasma, mean ± SEM
[8] = MPS group compared with the MG group, AIA rats
[9] = Sprague-Dawley, rat, plasma, po, 39.2 g/kg/day, MG group: AIA rats, saline 21 days, then oral SM 39.2 g crude drug/kg, plasma, mean ± SEM
[10] = Sprague-Dawley, rat, plasma, po, 39.2 g/kg/day, MPS group: AIA rats, oral PS 9.8 g crude drug/kg/day 21 days, then oral SM 39.2 g crude drug/kg, plasma, mean ± SEM
[11] = Sprague-Dawley, po, 39.2 g/kg/day

SMILES | AUC 0-t [1, 4] [ng·h/mL] | AUC 0-t [1, 5] [ng·h/mL] | AUC(0-inf) [1, 4] [ng·h/mL] | AUC(0-inf) [1, 5] [ng·h/mL] | Cmax [1, 4] [ng/mL] | Cmax [1, 5] [ng/mL] | Tmax [1, 4] [h] | Tmax [1, 5] [h] | half-life [1, 6] [h] | half-life [1, 7] [h] | Change of C max after oral PS [2, 8] | AUC 0-t [2, 5] [ng·h/mL] | AUC 0-∞ [2, 5] [ng·h/mL] | C max [2, 5] [ng/mL] | Absorption under the intervention of PS ([2]; AIA rats) | AUC 0-t [2, 4] [ng·h/mL] | AUC 0-∞ [2, 4] [ng·h/mL] | C max [2, 4] [ng/mL] | T max [2, 4] [h] | t 1/2 [2, 4] [h] | other results
COc1ccc(-c2coc3cc(O)ccc3c2=O)cc1O [Calycosin] | 12.3 ± 1.06 | 12.4 ± 0.972 | 14.3 ± 1.19 | 13.6 ± 0.642 | 8.48 ± 2.43 | 6.61 ± 1.44 | 0.083 ± 0.001 | 0.083 ± 0.001 | 4.94 ± 0.315 | 3.53 ± 0.666 | – | – | – | – | – | – | – | – | – | – | –
O=C1C[C@@H](c2ccc(O[C@@H]3O[C@H](CO)[C@@H](O)[C@H](O)[C@H]3O)cc2)Oc2cc(O)ccc21 [Liquiritin] | 300 ± 52.8 | – | 307 ± 53.9 | – | 126 ± 18.5 | – | 0.167 ± 0.083 | 0.083 ± 0.001 | 2.09 ± 0.132 | 3.3 ± 0.429 | significantly increased | 321.663 ± 49.723 | 339.781 ± 52.584 | 190.023 ± 19.153 | increased | – | – | – | – | – | –
C[C@@]12C[C@@]3(O)O[C@@H](O1)[C@]1(COC(=O)c4ccccc4)[C@H]3C[C@@]12O[C@@H]1O[C@H](CO)[C@@H](O)[C@H](O)[C@H]1O [Paeoniflorin] | 2540 ± 95.9 | 2870 ± 71.7 | 2460 ± 223 | 2900 ± 68.7 | 1920 ± 225 | 2060 ± 352 | 0.438 ± 0.108 | 0.396 ± 0.18 | 2.13 ± 0.102 | 1.99 ± 0.126 | – | – | – | – | increased | – | – | – | – | – | Change of AUC 0-t after oral PS [2, 8]: increased; Change of AUC 0-∞ after oral PS [2, 8]: increased
O=C(/C=C/c1ccc(O[C@@H]2O[C@H](CO)[C@@H](O)[C@H](O)[C@H]2O)cc1)c1ccc(O)cc1O [Isoliquiritin] | 23.3 ± 0.956 | 21.9 ± 1.76 | 30.8 ± 2.93 | 33.1 ± 3.19 | 13.6 ± 1.06 | 14.2 ± 1.55 | 0.194 ± 0.079 | 0.111 ± 0.062 | 5.85 ± 2.02 | 7.61 ± 1.85 | – | – | – | – | – | – | – | – | – | – | –
COC[C@@]12CC[C@H](OC)[C@]34C([C@H]([C@H](OC)[C@H]13)[C@]1(O)[C@H]3[C@@H](OC(=O)c5ccccc5)[C@](O)(C[C@H]34)[C@@H](OC)[C@@H]1O)N(C)C2 [Benzoylhypaconine] | – | – | – | – | – | – | – | – | – | – | increased | 1.394 ± 0.255 | 1.604 ± 0.229 | 0.861 ± 0.160 | increased | 1.018 ± 0.049 | 1.123 ± 0.062 | 0.467 ± 0.108 | 0.083 ± 0.001 | 3.938 ± 0.322 | Change of AUC 0-∞ after oral PS [2, 8]: increased; T max [2, 5]: 0.083 ± 0.001 h; t 1/2 [2, 5]: 4.742 ± 0.904 h
CN[C@@H](C)[C@H](O)c1ccccc1 [Ephedrine] | 1720 ± 96.8 | – | 1750 ± 93.6 | 1580 ± 228 | 674 ± 137 | 662 ± 149 | – | 0.333 ± 0.118 | 1.85 ± 0.273 | 1.74 ± 0.108 | – | 1559.029 ± 227.025 | – | – | – | – | – | – | 0.250 ± 0.001 | – | –
CC1(C)[C@@H](O[C@H]2O[C@H](C(=O)O)[C@@H](O)[C@H](O)[C@H]2O[C@@H]2O[C@H](C(=O)O)[C@@H](O)[C@H](O)[C@H]2O)CC[C@]2(C)[C@H]3C(=O)C=C4[C@@H]5C[C@@](C)(C(=O)O)CC[C@]5(C)CC[C@@]4(C)[C@]3(C)CC[C@@H]12 [Glycyrrhizic acid] | – | – | – | – | – | – | – | – | – | – | significantly increased | – | – | – | increased | – | – | – | – | 7.605 ± 1.142 | AUC 0-t ([2]; Sprague-Dawley, rat, plasma, po, 39.2 g/kg/day, AUC 0-t, MG group: AIA rats, saline 21 days, then oral SM 39.2 g crude drug/kg, plasma, mean ± SEM): 23100 ng·h/mL; AUC 0-t ([2]; Sprague-Dawley, rat, plasma, po, 39.2 g/kg/day, AUC 0-t, MPS group: AIA rats, oral PS 9.8 g crude drug/kg/day 21 days, then oral SM 39.2 g crude drug/kg, plasma, mean ± SEM): 29600 ng·h/mL; AUC(0-inf) [2, 9]: 25900 ng·h/mL; AUC(0-inf) [2, 10]: 27400 ng·h/mL; Cmax [2, 9]: 3800 ± 304 ng/mL; Cmax [2, 10]: 5200 ± 706 ng/mL; Tmax [2, 9]: 0.5 ± 0.001 h; Tmax [2, 10]: 0.667 ± 0.236 h; half-life ([2]; Sprague-Dawley, rat, plasma, po, 39.2 g/kg/day, t 1/2, MPS group: AIA rats, oral PS 9.8 g crude drug/kg/day 21 days, then oral SM 39.2 g crude drug/kg, plasma, mean ± SEM): 7.25 ± 0.086 h
CCN1C[C@]2(COC)CC[C@H](O)[C@]34C1[C@H]([C@H](OC)[C@H]23)[C@@]1(O)C[C@H](OC)[C@H]2C[C@@H]4[C@@H]1[C@H]2O [Neoline] | – | – | – | – | – | – | – | – | – | – | – | 7.559 ± 0.880 | 7.980 ± 0.757 | 3.695 ± 1.005 | – | 7.417 ± 0.718 | 8.058 ± 0.838 | 3.221 ± 1.040 | 0.333 ± 0.118 | 3.245 ± 0.999 | T max [2, 5]: 0.250 ± 0.001 h; t 1/2 [2, 5]: 2.486 ± 0.349 h
CCN1C[C@]2(COC)CC[C@H](OC)[C@]34C1[C@H](C[C@H]23)[C@@]1(O)C[C@H](OC)[C@H]2C[C@@H]4[C@@H]1[C@H]2O [Talatizamine] | – | – | – | – | – | – | – | – | – | – | – | 22.338 ± 1.786 | 28.106 ± 2.545 | 3.576 ± 0.320 | – | 21.996 ± 1.581 | 30.766 ± 4.871 | 3.376 ± 0.595 | 0.417 ± 0.276 | 6.242 ± 1.838 | T max [2, 5]: 0.292 ± 0.093 h; t 1/2 [2, 5]: 5.163 ± 1.483 h
COC[C@]12CN(C)C3[C@@H]4[C@H](OC)[C@H]1[C@@]3([C@@H](OC)C[C@H]2O)[C@@H]1C[C@@]2(O)[C@H](OC(=O)c3ccccc3)[C@@H]1[C@]4(O)[C@@H](O)[C@@H]2OC [Benzoylmesaconitine] | – | – | – | – | – | – | – | – | – | – | – | 25.368 ± 7.147 | 25.465 ± 7.145 | 15.899 ± 4.818 | – | 21.413 ± 1.140 | 23.447 ± 1.422 | 14.305 ± 3.689 | 0.139 ± 0.079 | 3.530 ± 0.873 | T max [2, 5]: 0.083 ± 0.001 h; t 1/2 [2, 5]: 1.723 ± 0.296 h
C[C@@]12C[C@@]3(O)O[C@@H](O1)[C@]1(COC(=O)c4ccccc4)[C@H]3C[C@@]12O[C@@H]1O[C@H](COC(=O)c2ccccc2)[C@@H](O)[C@H](O)[C@H]1O [Benzoylpaeoniflorin] | 27.9 ± 5.4 | 31.6 ± 6.74 | 30.6 ± 6.08 | 37.9 ± 9.82 | 14.8 ± 2.66 | 24.3 ± 4 | 0.139 ± 0.079 | 0.083 ± 0.001 | 3.59 ± 0.489 | 6.96 ± 2.27 | significantly increased | – | – | – | increased | – | – | – | – | – | –
C=C1[C@H]2C[C@@]3([C@@H]1O)[C@@H](CC2=O)[C@]12[C@@H]4C[C@H]3[C@H]1N(CC)C[C@]4(C)CC[C@@H]2O [Songorine] | – | – | – | – | – | – | – | – | – | – | – | – | – | – | – | – | – | – | – | – | AUC 0-t [1]: 60.2 ± 6.5 ng·h/mL; AUC(0-inf) [1]: 64.6 ± 6.04 ng·h/mL; Cmax [1]: 14 ± 2.32 ng/mL; Tmax [1]: 0.667 ± 0.236 h; half-life ([1]; t 1/2): 2.64 ± 0.461 h; AUC 0-t [3, 11]: 80.730 ± 5.544 ng·h/mL; AUC 0-∞ [3, 11]: 84.255 ± 5.364 ng·h/mL; C max [3, 11]: 17.665 ± 1.910 ng/mL; T max [3, 11]: 0.917 ± 0.773 h; t 1/2 [3, 11]: 2.522 ± 0.269 h; Absorption under the intervention of PS [3]: increased; Change of AUC 0-t after oral PS ([3]; po): increased; Change of AUC 0-∞ after oral PS ([3]; po): increased
